# Laboratory results: patent US12455218B2, “Methods and compositions for reversing platelet clumping” (Truvian Sciences, Inc., priority 2019, dated 2025)
# “Also recorded” adds a separate entry of the source.
# How the values were obtained:
# Assay type in all cases: cell-based
# [1] = system: platelets in venipuncture and fingerstick blood; assay: Platelet clumping after blood collection into anticoagulant tubes; details: venipuncture and fingerstick blood collected in anticoagulant tubes
# Excerpt: Blood used in the following examples came from either venipuncture or fingerstick samples. Standard phlebotomy practices were followed to collect donor venipuncture blood in either BD Vacutainer′ EDTA blood collection tubes or BD Vacutainer′ PST lithium heparin plasma separation blood collection tubes. Standard phlebotomy practices were followed to collect donor fingerstick blood in either LiHep SAFE-T-FILL™ tubes or EDTA SAFE-T-FIL™tubes. All blood samples were stored at room temperature until use. Samples were analyzed within 12 hours of blood collection.
# Platelet clumping appeared to occur spontaneously following blood collection. For all studies, an EDTA control sample was used in which blood from either venipuncture or fingerstick were collected into EDTA tubes. EDTA venipuncture control samples were collected into EDTA blood collection tubes from the same donor using the same port as the lithium heparin samples.
# [2] = system: platelet clumps in LiHep blood samples; assay: Platelet count per field of view in blood smears of LiHep blood, Azure B stain; details: for recovery of platelet counts: FIG. 3, fingerstick LiHep blood, vortexed, Azure B
# Method: A series of anti-coagulants are tested for their respective effect in reversing platelet clumping formed in blood samples. Fresh fingerstick blood samples were collected into EDTA and LiHep blood collection tubes as described above. Concentrated EDTA was dried for at least one hour at room temperature in microcentrifuge tubes using a vacuum drying oven. Immediately following collection, a 200 uL fraction of the LiHep sample (“LiHep+EDTA”) was passed through two separate EDTA SAFE-T-FIL™ capillary tubes for a double exposure to the EDTA anticoagulant resulting in a final concentration of about 8.8 mM EDTA in blood Another 200 uL fraction (“LiHep+TruEDTA”) was added to the previously prepared vacuum-dried EDTA resulting in a final concentration of 20 mM EDTA in blood. At 30 minutes post collection, another 200 uL fraction of the LiHep sample (“LiHep+EDTA 30 min”) was passed through two separate EDTA SAFE-T-FILL™ capillary tubes for a double exposure to the EDTA anticoagulant. All samples were pulse vortexed with three, five-second bursts at the maximum vortex setting immediately following addition to EDTA. At 30 minutes post collection, all samples were then stained using an Azure B solution from the Differential Quik Stain™ Kit (Modified Giemsa) from Polysciences, Inc. Azure B was added to blood sample at a 1:1 ratio and pipette mixed. A standard blood smear was performed on all samples. Cells were imaged using the bright field setting on an Echo Revolve™ microscope at 20× magnification. Between six to seven different fields of view were captured. Images were analyzed using Image J and the number of platelets present in each field of view was manually counted. Error bars indicate standard deviation of the data set.
# Particularly, fresh fingerstick blood samples were collected into EDTA and LiHep blood collection tubes as described above. Concentrated EDTA was dried for at least one hour at room temperature in microcentrifuge tubes using a vacuum drying oven. […] Images were analyzed using Image J and the number of platelets present in each field of view was manually counted. […]
# white blood cells = assay: White blood cell morphology, AO stain, fluorescence microscopy; details: FIG. 2, fingerstick LiHep blood, 60 M EDTA, 3×EDTA sample 60 mM
# Method: Next, it was examined whether EDTA exposure impacts blood cell morphology. Particularly, fresh fingerstick blood samples were collected into EDTA and LiHep blood collection tubes. Concentrated EDTA was dried for at least one hour at room temperature in microcentrifuge tubes using a vacuum drying oven. A 200 uL fraction of the LiHep sample (“1×”) was added to the previously prepared vacuum-dried EDTA resulting in a final concentration of 20 mM EDTA in blood. Another 200 uL fraction of the LiHep sample (“3×”) was added to the previously prepared vacuum-dried EDTA resulting in a final concentration of 60 mM EDTA in blood. […] Cells were imaged using the fluorescence setting on an Echo Revolve microscope. […] To capture the green fluorescence of AO, which labeled the nuclei of white blood cells, a blue LED light source with excitation filter at 470/40 nm was paired with emission filter at 525/50 nm, with a dichroic mirror at 495 nm. To capture the red fluorescence of AO, which labeled the cytoplasmic compartments of white blood cells, the same blue LED light source was paired with emission filter at 635/60 nm with a dichroic mirror at 600 nm. […]
# Particularly, fresh venipuncture blood samples were collected into EDTA and LiHep blood collection tubes as described above. […] Cells were imaged using the fluorescence setting on an Echo Revolve™ microscope. […]
# [3] = system: platelet clumps in LiHep blood samples; assay: Platelet count per field of view in blood smears of LiHep blood, acridine orange (AO) stain; details: for declumping activity / increase in platelet count due to reversal of platelet clumping: Example 8, FIG. 7 and 8, LiHep blood
# Method: Particularly, fresh venipuncture blood samples were collected into EDTA and LiHep blood collection tubes as described above. Concentrated EDTA was dried for at least one hour at room temperature in microcentrifuge tubes using a vacuum drying oven. […] This sample was pulse vortexed with three, ten second bursts at the maximum vortex setting. […] This sample was sonicated in a water bath sonicator for 1 minute. […] This sample was pipette mixed using a Tecan Carvo Omni™ automated pipettor. To mix, 150 uL of sample was aspirated and dispensed at 1 mL/s 0.5 mm from the bottom of the tube. This mixing cycle was repeated 30 times. All samples were then stained using an acridine orange (AO). AO was added to blood sample at a final concentration of 10 ug/mL, pipette mixed and incubated for 5 minutes at room temperature. A standard blood smear was performed on all samples. A coverslip was placed on top of the sample immediately following the blood smear to prevent sample drying out. Cells were imaged using the fluorescence setting on an Echo Revolve™ microscope. AO is a pH-sensitive cationic dye. When bound to double-stranded DNA (for example, in the nuclear compartment), the dye fluoresces green with an excitation maximum at 502 nm and emission maximum at 525 nm. When bound to single stranded DNA and RNA (for example, in the cytoplasm) or when the dye is in an acidic environment (for example, in lysosomes), the dye fluoresces red with an excitation maximum at 460 nm and emission maximum at 650 nm. […] Between five to eight different fields of view were captured. Images were analyzed using Image J and the number of platelets present in each field of view was manually counted. Error bars indicate standard deviation of the data set.
# Particularly, fresh venipuncture blood samples were collected into EDTA and LiHep blood collection tubes as described above. Concentrated EDTA was dried for at least one hour at room temperature in microcentrifuge tubes using a vacuum drying oven. […] Both samples were pulse vortexed with three, ten-second bursts at the maximum vortex setting. Samples were then stained using acridine orange (AO). AO was added to blood sample at a final concentration of 10 ug/mL, pipette mixed and incubated for 5 minutes at room temperature. A standard blood smear was performed on all samples. A coverslip was placed on top of the sample immediately following the blood smear to prevent sample drying out. Cells were imaged using the fluorescence setting on an Echo Revolve™ microscope. AO is a pH-sensitive cationic dye. When bound to double-stranded DNA (for example, in the nuclear compartment), the dye fluoresces green with an excitation maximum at 502 nm and emission maximum at 525 nm. When bound to single stranded DNA and RNA (for example, in the cytoplasm) or when the dye is in an acidic environment (for example, in lysosomes), the dye fluoresces red with an excitation maximum at 460 nm and emission maximum at 650 nm. […] Between five to seven different fields of view were captured. Images were analyzed using Image J and the number of platelets present in each field of view was manually counted. Error bars indicate standard deviation of the data set.
# To investigate the ability of citric acid to reverse platelet clumping, venipuncture blood samples were collected into EDTA and LiHep blood collection tubes as described above. […] A second 15 μL fraction of LiHep blood was treated with citric acid at a final concentration of 5 mM. To encourage platelet declump, samples were then vortexed. Samples were stained using acridine orange and imaged using an Echo Revolve™ Microscope at 20× magnification. Images were analyzed using Image J and the number of platelets present in each field of view (FOV) across 10 FOVs was manually counted.
# Venipuncture blood samples were collected into EDTA and LiHep blood collection tubes as described above. A 15 μL aliquot of LiHep blood was treated with 5 mM NTA an vortexed vigorously.
molecule,measurement,setting,value
Lithium heparin,platelet clumping following blood collection,[1],Significant amount of platelet clumping
"O=C(O)CN(CCN(CC(=O)O)CC(=O)O)CC(=O)O [EDTA, ethylenediaminetetraacetic acid]",recovery of platelet counts,[2]; 17.6 mM EDTA (LiHep+EDTA),greater than 40%
same,recovery of platelet counts,[2]; 20 mM EDTA (LiHep+TruEDTA),greater than 40%
same,reversed platelet clumping as compared to control groups,"[2]; FIG. 3 legend, blood collected in LiHep tubes",about 40%
same,platelet clumping following blood collection,[1],no detectible platelet clumping
same,morphology of white blood cells,white blood cells,negatively impact
"O=C(O)CN(CC(=O)O)CC(=O)O [NTA, N,N-bis(carboxymethyl)glycine]",declumping activity / increase in platelet count due to reversal of platelet clumping,[3],showed declumping activity; also recorded: increase in platelet count
same,recovery of platelets,"[3]; FIG. 8, venipuncture LiHep blood, 5 mM NTA, vortexed vigorously, 10 FOVs",71%
"O=C(O)CC(O)(CC(=O)O)C(=O)O [citric acid, 2-hydroxypropane-1,2,3-tricarboxylic acid]",declumping activity / increase in platelet count due to reversal of platelet clumping,[3],increase in platelet count
same,declumping activity / increase in platelet count due to reversal of platelet clumping,[3]; listed as Citric acid,showed declumping activity
same,recovery of platelet counts,"[3]; FIG. 7, venipuncture LiHep blood, citric acid 5 mM, vortexed, 10 FOVs",66%
